{"source": "patent US20090062359A1", "about": "(AlgoRx, priority 2002, published 2009)", "key": {"[1]": {"system": "animal models of inflammatory and neuropathic pain", "details": "administered locally; formalin test and spinal nerve ligation; cited from earlier work"}, "[2]": {"details": "human, in vivo, 300 ug", "method": "The pharmacokinetic parameters of Cmax, Tmax, AUC(0−tlast) and t½ were evaluated."}, "[3]": {"system": "subjects undergoing transpositional osteotomy (bunionectomy)", "test": "Bunionectomy efficacy study (Phase II): VAS pain at the operation site and rescue analgesia", "assay_type": "in vivo, human", "details": "for VAS pain score, mean +/− SEM: 1000 μg into the wound, n = 11", "method": "The primary efficacy endpoint was the proportion of subjects in each treatment group requiring opioid analgesia in the first 24 hours post-operatively. The proportions were compared amongst treatment groups using the Cochran-Haenszel test. Secondary efficacy end points included: i) proportion of subjects in each treatment group requiring opioid analgesia in the first 36 hour period post-operatively (Similarly, the proportions were compared amongst treatment groups using the Cochran-Haenszel test); ii) proportion of subjects in each treatment group requiring opioid analgesia in the 10 day period post-operatively (Similarly, the proportions were compared amongst treatment groups using the Cochran-Haenszel test); iii) time to first usage of opioid analgesia in each treatment group (a survival analysis approach will be used: the product-limit (Kaplan-Meier) method will be applied to time to first usage of opioid analgesia. The median time to first usage of opioid analgesia will be estimated in both treatment groups. Pairwise comparisons will be performed to test for equality of the survival curves between the 2 treatment groups using both the log-rank and the Wilcoxon test); iv) total usage of analgesia in each treatment group (the total usage of analgesia will be compared by an analysis of variance with treatment and center as independent variables. A pairwise comparison will be performed between the treatment groups); and v) VAS assessment of pain at the site of operation in each treatment group (The VAS score at each time point will be compared by an analysis of variance with treatment and center as independent variables. A pairwise comparison will be performed between the treatment groups). […] The efficacy analysis was performed on the data obtained ten days postoperatively. The safety analysis was performed based on the safety data for the entire study, including the 6 week and 12 week follow-up periods. The blind was broken at the time the efficacy analysis was performed. However, the individual treatment assignment was available to the statistical analysis group only. All other personnel involved in the study, including the Investigator, study monitor and proprietary staff, remained blinded until the entire study was completed.\nThe study was designed to include 40 evaluation subjects. […] Each subject had six (6) study visits: a Screening Day (Day −28 to −1), an Operation Day (Day 0), and four (4) Follow-up visits (scheduled for Days 3, 10 and weeks 6 and 12).\nOn Operation Day (Day 0) the following was performed: a) Pre-operation: Prior to the initiation of an ankle block, inclusion/exclusion criteria assessment was performed. […] Immediately prior to wound closure, the Investigator slowly dripped the study medication (4 mL) from a syringe into the wound, ensuring even tissue exposure. The wound was then be closed according to normal practices and procedures.\nIn the 24 hours following administration of study medication, vital signs (supine pulse rate and blood pressure) were recorded at 1, 2, 4 and 24 hours post administration. VAS assessment of pain at the operation site was performed at 1, 4, 8, 12 and 24 hours post administration. In those instances where VAS measurements coincide with blood sampling procedures, the VAS assessment was performed first. […] The quantity of each blood sample was 10 mL. […] Adverse events were spontaneously reported by the subject and recorded. […]"}, "rats": {"system": "rats", "details": "systemic, cited from earlier work"}, "[4]": {"system": "subjects with osteoarthritis of the knee", "test": "Osteoarthritis of the knee safety study (Phase 1): safety, tolerability and VAS pain after intra-articular infiltration", "assay_type": "in vivo, human", "details": "for patients reporting transient burning pain immediately following instillation: after 2% lignocaine", "method": "The primary objective of the study was to evaluate the safety and tolerability of intra-articular capsaicin, when co-administered with intra-articular local anesthetic, compared to placebo, in subjects with end-stage osteoarthritis of the knee, already scheduled to receive knee replacements.\nThe study was designed to include 16 evaluation subjects. […] Sixteen subjects completed the study.\nPatients were treated randomly and in double-blind fashion in four treatment groups, with each group having a progressively longer interval between the intra-articular administration of study medication and subsequent total knee replacement (2, 4, 7, and 14 days). […] Gross and microscopic pathology analysis was completed for each treatment group before the next treatment group was treated.\nEach subject had 3 study visits: a Screening Day (Day −7 to −1), the Treatment Day (Day 0), and a Post-Treatment Day (scheduled for Day +2, +4, +7, or +14). On the Treatment Day the subject was randomized, pre-treatment evaluation was performed. The patients were brought into the procedure room, and a VAS pain score was taken (0 mm—no pain, 100 mm—extreme pain). Once the patient had marked his or her pain on the card, he/she was prepped for knee cannulation. Once the cannula was placed, the patient received by intra-articular infiltration, 3 mg/kg (maximum dose of 200 mg) of 2% lignocaine into the knee scheduled to be replaced.\nVAS pain scores as well as verbal reports were taken immediately following administration, as well as prior to knee replacement surgery. No subjects discontinued from the study due to adverse events.\nOn the Post-Treatment Day, study evaluation was performed followed by the scheduled knee replacement, with intra-operative bone and soft tissue biopsies performed for subsequent examination. […] This therefore left the 3 placebo and 9 active patients from the 4 day, 7 day, and 14 day cohorts."}, "[5]": {"details": "cited from earlier work"}, "patients": {"system": "patients", "details": "Langman et al, Lancet 1994; cited from earlier work"}}, "note": "Several values for one entry are separate records, joined by “and”; a condition that tells them apart may be missing. Identical values can stand only once."}
{"smiles": "CN(C)CCC=C1c2ccccc2CCc2ccccc21", "note": "[amitriptyline]", "values": [{"measurement": "local antinociceptive action", "setting": "[1]", "value": "produced local antinociceptive actions"}]}
{"smiles": "COc1cc(CNC(=O)CCCC/C=C/C(C)C)ccc1O", "note": "[purified capsaicin, N-(4-hydroxy-3-methoxybenzyl)-8-methylnon-trans-6-enamide]", "values": [{"measurement": "AUC(0−tlast)", "setting": "[2]", "value": 0.49883, "unit": "ng·h/mL"}, {"measurement": "study subjects requiring rescue (opioid rescue)", "setting": "[3]; 1000 μg prior to wound closure, within 72 hours, n=11", "value": 45, "unit": "%"}, {"measurement": "VAS pain score, mean +/− SEM", "setting": "[3]; 8 hr", "value": "5.5 +/− 2.3"}, {"measurement": "VAS pain score, mean +/− SEM", "setting": "[3]; 12 hr", "value": "8.2 +/− 3.8"}, {"measurement": "VAS pain score, mean +/− SEM", "setting": "[3]; 24 hr", "value": "1.9 +/− 1.0"}, {"measurement": "VAS pain score, mean +/− SEM", "setting": "[3]; 48 hr", "value": "5.9 +/− 2.5"}, {"measurement": "effect on radiation induced hyperalgesia", "setting": "rats; final doses of 25 mg/kg or less prior to ultra violet radiation", "value": "prevented radiation induced hyperalgesia"}, {"measurement": "effect on pain threshold", "setting": "rats; final doses of 50 mg/kg or greater", "value": "pain threshold elevated"}, {"measurement": "patients reporting transient burning pain immediately following instillation", "setting": "[4]; 10 μg capsaicin intra-articular", "value": "0 of 4"}, {"measurement": "patients reporting transient burning pain immediately following instillation", "setting": "[4]; 100 μg capsaicin intra-articular", "value": "1 of 4"}, {"measurement": "duration of post-administration (hyper)algesic pain", "setting": "[4]; 100 μg dose group, single subject", "value": 9, "unit": "min"}, {"measurement": "patients reporting transient burning pain immediately following instillation", "setting": "[4]; 300 μg capsaicin intra-articular", "value": "4 of 4"}, {"measurement": "duration of post-administration (hyper)algesic pain", "setting": "[4]; 300 μg dose group, individual subjects", "value": "17 minutes and 25 minutes (2×) and 42 minutes"}, {"measurement": "tolerability", "setting": "[4]; 10, 100 and 300 μg intra-articular", "value": "well tolerated at all dose levels"}, {"measurement": "treatment related systemic side effects", "setting": "[4]; all dose levels", "value": "No treatment related systemic side effects were seen"}, {"measurement": "gross and microscopic pathology", "setting": "[4]; all dose levels, knee tissue at replacement", "value": "normal"}, {"measurement": "onset of post-administration (hyper)algesia after administration", "setting": "[4]; all episodes, 100 μg and 300 μg dose groups", "value": "≤ 5", "unit": "min"}, {"measurement": "effect on proprioception at the injected knee", "setting": "[4]; any dose group at any time point", "value": "no discernable effect"}, {"measurement": "average duration of post injection hyperalgesia", "setting": "[4]; burning sensation, 100 μg and 300 μg dose groups", "value": "less than thirty minutes"}, {"measurement": "reduction of VAS pain score, before administration versus day of surgery", "setting": "[4]; capsaicin group (9 active patients, 10-300 μg), 4 day, 7 day and 14 day cohorts", "value": "62±14", "unit": "%"}, {"measurement": "treatment related indication of efficacy (VAS)", "setting": "[4]; dose levels 10 μg, 100 μg and 300 μg", "value": "No clear treatment related indication of efficacy"}, {"measurement": "solubility in organic solvents", "setting": "[5]; alcohol, ether, benzene and chloroform", "value": "freely soluble"}, {"measurement": "solubility in water", "setting": "[5]; water", "value": "practically insoluble"}]}
{"smiles": "CNCCCN1c2ccccc2CCc2ccccc21", "note": "[desipramine]", "values": [{"measurement": "local antinociceptive action", "setting": "[1]", "value": "produced local antinociceptive actions"}]}
{"smiles": "CN1C(C(=O)Nc2ccccn2)=C(O)c2ccccc2S1(=O)=O", "note": "[piroxicam]", "values": [{"measurement": "patients experiencing gross bleeding and ulceration", "setting": "patients", "value": "up to 4%"}]}
